Where two headings read alike, the source gives them in different places.
Key:
[1] = IAM-HPLC chromatographic capacity factor (log k' IAM); assay type: physicochemical; conditions: IAM.PC.MG 12 µm column; isocratic ACN/0.035 M phosphate buffer pH 6.8 (30:70 v/v), 0.5 ml/min; k'=(Tr–T0)/T0; mean of 2–4 determinations
Experimental: Chromatographic analysis was performed using a Shimadzu LC 20A chromatograph coupled to a diode array detector, operated at a range of 210–260 nm, depending on the analyzed compound. A biomimetic commercially available column was used in all experiments: IAM. PC.MG12 µm (150 × 4.6 mm) was purchased from Regis Chemical Company (Morton Grove, IL).
OSC separation conditions under IAM-HPLC were adapted from [Luco et al. (2003]) and [Barbato et al. (1998]), with modifications. The chromatographic mode consisted in an isocratic elution used as the mobile phase ACN/0.035 M phosphate buffer −pH 6.8− (30:70 (v/v)) at 0.5 ml min^−1. The column dead time (T0) was estimated by ascorbic acid retention time which was measured at 210 nm. The obtained retention data were used to calculate the chromatographic parameter corresponding to the capacity factor k’ as follows: k’ = (Tr–T0)/T0. All capacity factors given represent the mean of 2–4 determinations of each sample solution.
For this study, we considered 28 phytochemical compounds containing sulfur-based groups. […] Most of these compounds are garlic-derived substances with bioactive functions. […] We chose them because of their bioactive functionality and their similar metabolism within the plants and human body. Each analytical standard stock solution was prepared in the mobile phase at concentrations ranging from 100 to 800 µg ml^−1, depending on the solubility of the compound and their DAD detector response. Peak identification in samples was carried out by comparing retention times with reference standards.

[2] = set-up: method as in Egen-Schwind et al., 1992; conditions: ref Egen-Schwind et al., 1992, cited from earlier work; for lipophilicity (relative, in words): 1,3- vs 1,2-vinyldithiin; for elimination / tissue accumulation: serum, kidney, fat tissue
[3] = set-up: method as in Torres-Palazzolo et al. (2018); conditions: ref Torres-Palazzolo et al. (2018); cited from earlier work
[4] = cited from earlier work

| Molecule | Log (k'IAM) [1] | other results |
| --- | --- | --- |
| C=CCSS/C=C\C[S+]([O-])CC=C (stereo not drawn) [Z-Ajoene] | 0.015 |  |
| c1coc(CSSCc2ccco2)c1 [Furfuryl disulfide, furfuryl disulfide] | 0.713 |  |
| CC=C[S+]([O-])C[C@H](N)C(=O)O (stereo in doubt) [Isoalliin, (+)-S-trans-1-propenyl-L-cysteine sulfoxide] | −0.734 |  |
| C=CC1SC=CCS1 (stereo not drawn) [2-vinyldithiin, 2-Vinyl-4H-1,3-dithiine] | 0.237 | lipophilicity (relative, in words) [2]: less lipophilic; elimination / tissue accumulation [2]: rapidly eliminated from serum, the kidney, and fat tissue; permeation through the intestine [3]: less than 5% |
| CSSC [Dimethyl disulfide, dimethyl disulfide] | −0.017 |  |
| CCSSCC [Ethyl disulfide] | 0.420 |  |
| CCSCC [Ethyl sulfide] | −0.099 |  |
| C=CCS[S+]([O-])CC=C (stereo not drawn) [Allicin, diallyl thiosulfinate] | −0.409 | permeation through the intestine [3]: less than 5%; cellular permeability (in words) ([4]; ref Rahman, 2007): can easily permeate cell membranes of phospholipids bilayers; metabolism (in words) ([4]; ref Rahman, 2007): rapidly metabolized and transformed into other active compounds |
| C=CCSSSCC=C [Diallyl Trisulfide, diallyl trisulfide] | 0.781 | cellular permeability (in words) ([4]; not told): high cellular permeability |
| S=C=NCc1ccccc1 [Benzyl isothiocyanate] | 0.571 |  |
| S=C=NCCc1ccccc1 [Phenethyl isothiocyanate] | 0.663 |  |
| C[S+]([O-])C[C@H](N)C(=O)O (single isomer, unassigned; (+)) [Methiin, (+)-S-methyl-L-cysteine sulfoxide] | −1.922 |  |
| C=CCSCC=C [Diallyl sulfide, diallyl sulfide] | 0.222 | permeation through the intestine [3]: less than 5% |
| S-allyl-L-cysteine | −1.102 | cellular permeability (in words) ([4]; ref Rahman, 2007): high cellular permeability |
| CCCSSCCC [Propyl disulfide] | 0.913 |  |
| C=CCSS/C=C/C[S+]([O-])CC=C (stereo not drawn) [E-Ajoene] | 0.022 |  |
| OCc1c[nH]c2ccccc12 [Indole-3-carbinol, indole-3-carbinol] | −0.204 |  |
| S-propyl-L-cysteine | −1.645 |  |
| C=CC1CC=CSS1 (stereo not drawn) [1,2-vinyldithiin] |  | lipophilicity (relative, in words) [2]: more lipophilic; elimination / tissue accumulation [2]: showed a tendency to accumulate in fat tissues |
| CCCSSSC [Methyl Propyl Trisulfide] | 0.810 |  |
| C[S+]([O-])/C=C/CCN=C=S (stereo not drawn) [Sulforaphene, S-sulforaphene] | −0.521 |  |
| C=CCS [Allyl mercaptan] | −0.197 |  |
| S=C=Nc1ccccc1 [Phenyl isothiocyanate] | 0.746 |  |
| C[S+]([O-])CCCCN=C=S (stereo not drawn) [Sulforaphane, sulforaphane] | −0.514 |  |
| C=CCN=C=S [Allyl isothiocyanate] | 0.118 |  |
| S-methyl-L-cysteine | −1.322 |  |
| C=CCSSCC=C [Diallyl disulfide, diallyl disulfide] | 0.554 | cellular permeability (in words) ([4]; ref Rahman, 2007): high cellular permeability |
| C=CCSC [Allyl methyl sulfide, allyl methyl sulfide] | −1.021 |  |
